Values after ≈ are worked out from the molar mass of the structure shown. Values joined by “and” are separate entries in the source; they are usually repeats but may differ in a detail not shown here. Equal entries are not always repeated. Where two headings read alike, the source gives them in different places.
How the values were obtained:
[1] = Phase solubility of CBZ in aqueous Captisol and aqueous Cavitron; assay type: physicochemical; settings: for Measured CBZ conc: ambient laboratory temperature
Method: The percent weight/volume cyclodextrin solutions were prepared by adding the appropriate amount of cyclodextrin to a flask and filling to the desired total volume (10 mL) with water, as shown in the following Table 4. An excess of carbamazepine was added to each eppendorf tube. Appropriate vehicles were added to each tube and the final volumes were 1 mL. The solubility of CBZ was determined at ambient laboratory temperatures in various concentrations of aqueous Captisol and aqueous Cavitron (brand names of modified cyclodextrins useful in the present invention). The drug substance was added to a microcentrifuge tube and the appropriate vehicle was added. Periodically, the samples were centrifuged and then an aliquot was removed from the supernatant, diluted as necessary and assayed by HPLC to determine the concentration. The phase solubility was evaluated at least three times during each experiment to insure that the mixture achieved equilibrium. […] The solubilities reported in Table 5 are the average of two or three concentration determinations obtained during the respective time course.

[2] = human, in vivo, po
Method: Indwelling catheters were placed into the arms of test subjects. A single 100 mg dose of stable-labeled (non-radioactive) CBZ (SL-CBZ) was then infused over 10 minutes. At the end of the infusion, the subject's usual morning dose of oral CBZ, less 100 mg, was administered. Blood pressure, heart rate and rhythm, and infusion site discomfort were monitored during and for an hour after the infusion. […] Unbound CBZ was measured following ultrafiltration. CBZ concentration-time data were analyzed using a non-compartmental approach with the pharmacokinetic software, WinNONLIN.
A validated LC-MS assay for SL-CBZ, CBZ and their respective epoxide metabolites was used. […] CBZ was assayed similar to that described by Osterloh and Bertilsson. […] After shaking and centrifugation, the organic layer was removed and evaporated under nitrogen gas to dryness. Each sample was then redissolved with the addition of 25 microliters of ethyl acetate. Plasma samples were measured for unbound and total CBZ, CBZ glucuronide and CBZ-E by LCMS. Unbound drug was separated from the bound fraction by ultrafiltration. The mobile phase consists of 50% 0.05 M ammonium acetate buffer, pH 4.7, 50% MeOH at a flow rate of 0.4 ml/min, on a reverse phase C-18 column.

[3] = Subset analysis of subjects on extended release CBZ twice daily: predicted IV vs observed oral steady-state Cmax, Cmin, AUC; assay type: in vivo, human; settings: N=47; for AUC: human, plasma
Method: A subset analysis of the subject data (n=47), including only those subjects taking extended release (ER) formulations of CBZ twice daily (as indicated by the product label), was performed to compare predicted maximum and minimum exposures of CBZ at steady-state administered via IV infusion to those observed following oral administration. CBZ concentration-time profiles following IV administration will differ from oral administration to the greatest extent for subjects on ER products, since these products provide formulation dependent control of the concentration-time profile. Subjects on extended release formulations experience the least fluctuation in concentrations and will maintain higher relative trough concentrations compared to any non-extended release product. Thus, the analysis in this subset gives a conservative assessment of potential differences in peak and trough exposures following IV administration. This analysis included calculations of predicted Cmax, Cmin, and AUCss values of CBZ for subjects predicted to be at steady-state on IV therapy.

[4] = 5th Percentile, observed, ER products twice daily
[5] = 5th Percentile, predicted, IV every 6 hours
[6] = 95th Percentile, observed, ER products twice daily
[7] = 95th Percentile, predicted, IV every 6 hours
[8] = Maximum, observed, ER products twice daily
[9] = Maximum, predicted, IV every 6 hours
[10] = Median, observed, ER products twice daily
[11] = Median, predicted, IV every 6 hours
[12] = Minimum, observed, ER products twice daily
[13] = Minimum, predicted, IV every 6 hours

Compound: NC(=O)N1c2ccccc2C=Cc2ccccc21 [Carbamazepine, 5H-dibenz[b,f]azepine-5-carboxamide]
- Measured CBZ conc, Ave ([1]; Cavitron 30% w/v, average of the three determinations): 16.7 mg/mL
- Measured CBZ conc ([1]; Cavitron 35% w/v, CBZ source Orgamol, listed as CBZ): 18.1 mg/mL and 19.9 mg/mL
- Measured CBZ conc ([1]; Cavitron 35% w/v, CBZ source Spectrum): 20.7 mg/mL
- Measured CBZ conc, Ave ([1]; Cavitron 35% w/v, average of the three determinations): 19.6 mg/mL
- Measured CBZ conc ([1]; Cavitron 40% w/v, CBZ source Orgamol, listed as CBZ): 22.5 mg/mL and 22.0 mg/mL
- Measured CBZ conc ([1]; Cavitron 40% w/v, CBZ source Spectrum): 23.2 mg/mL
- Measured CBZ conc, Ave ([1]; Cavitron 40% w/v, average of the three determinations): 22.6 mg/mL
- Measured CBZ conc ([1]; Cavitron 45% w/v, CBZ source Orgamol, listed as CBZ): 25.5 mg/mL and 25.7 mg/mL
- Measured CBZ conc ([1]; Cavitron 45% w/v, CBZ source Spectrum): 27.3 mg/mL
- Measured CBZ conc, Ave ([1]; Cavitron 45% w/v, average of the three determinations): 26.2 mg/mL
- Measured CBZ conc ([1]; Cavitron 50% w/v, CBZ source Orgamol, listed as CBZ): 27.8 mg/mL and 28.0 mg/mL
- Measured CBZ conc ([1]; Cavitron 50% w/v, CBZ source Spectrum): 31.5 mg/mL
- Measured CBZ conc, Ave ([1]; Cavitron 50% w/v, average of the three determinations): 29.1 mg/mL
- solubility thermodynamic ([1]; aqueous Cavitron, water, thermodynamic from solid, Cavitron 0% w/v, average of the three determinations, read-out: Measured CBZ conc, Ave): 200 µg/mL (≈ 846 µM)
- CBZ solubility in Cavitron as compared to Captisol ([1]; at most cyclodextrin concentrations, FIG. 1A): marginally improved in Cavitron
- calculated mean F value [2]: 75%
- median F value [2]: 67%
- Oral Cmaxss [3, 4]: 4980 ng/mL
- Oral Cminss [3, 4]: 4320 ng/mL
- IV CmaxSS (mean F = 0.7) [3, 5]: 4800 ng/mL
- IV CminSS (mean F = 0.7) [3, 5]: 2480 ng/mL
- Oral Cmaxss [3, 6]: 14600 ng/mL
- Oral Cminss [3, 6]: 14550 ng/mL
- IV CmaxSS (mean F = 0.7) [3, 7]: 24140 ng/mL
- IV CminSS (mean F = 0.7) [3, 7]: 18640 ng/mL
- Oral Cmaxss [3, 8]: 17100 ng/mL
- Oral Cminss [3, 8]: 16690 ng/mL
- IV CmaxSS (mean F = 0.7) [3, 9]: 47000 ng/mL
- IV CminSS (mean F = 0.7) [3, 9]: 41040 ng/mL
- IV CmaxSS (mean F = 0.7) ([3]; Maximum, predicted, IV every 6 hours, listed as CBZ): 47000 ng/mL
- Oral Cmaxss ([3]; Mean ± SD, observed, ER products (Carbatrol, Tegretol XR) twice daily, highest observed concentration, sparse sampling): 9920 ± 2990 ng/mL
- Oral Cminss ([3]; Mean ± SD, observed, ER products twice daily): 9320 ± 2930 ng/mL
- IV CminSS (mean F = 0.7) ([3]; Mean ± SD, predicted, IV every 6 hours): 8630 ± 6850 ng/mL
- IV CmaxSS (mean F = 0.7) ([3]; Mean ± SD, predicted, scaled from 100 mg single IV dose over 10 minutes, every 6 hours): 11750 ± 7900 ng/mL
- IV CmaxSS (mean F = 0.7) ([3]; Mean ± SD, predicted, scaled from 100 mg single IV dose over 10 minutes, every 6 hours, listed as CBZ): 11750 ng/mL
- Oral Cmaxss [3, 10]: 9810 ng/mL
- Oral Cminss [3, 10]: 9440 ng/mL
- IV CmaxSS (mean F = 0.7) [3, 11]: 9930 ng/mL
- IV CminSS (mean F = 0.7) [3, 11]: 6500 ng/mL
- Oral Cmaxss [3, 12]: 2890 ng/mL
- Oral Cminss [3, 12]: 2890 ng/mL
- IV CmaxSS (mean F = 0.7) [3, 13]: 3170 ng/mL
- IV CminSS (mean F = 0.7) [3, 13]: 1650 ng/mL
- AUC ([3]; iv, 5th Percentile, predicted, IV every 6 hours, read-out: IV AUCSS (mean F = 0.7)): 43100 ng·h/mL
- AUC ([3]; iv, 95th Percentile, predicted, IV every 6 hours, read-out: IV AUCSS (mean F = 0.7)): 257000 ng·h/mL
- AUC ([3]; iv, Maximum, predicted, IV every 6 hours, read-out: IV AUCSS (mean F = 0.7)): 551000 ng·h/mL
- AUC ([3]; iv, Mean ± SD, predicted, IV every 6 hours, read-out: IV AUCSS (mean F = 0.7)): 122000 ± 90900 ng·h/mL
- AUC ([3]; iv, Median, predicted, IV every 6 hours, read-out: IV AUCSS (mean F = 0.7)): 93700 ng·h/mL
- AUC ([3]; iv, Minimum, predicted, IV every 6 hours, read-out: IV AUCSS (mean F = 0.7)): 26900 ng·h/mL
- AUC ([3]; po, 5th Percentile, observed, ER products, 12 hour dosing interval, read-out: Oral AUCss): 50100 ng·h/mL
- AUC ([3]; po, 95th Percentile, observed, ER products, 12 hour dosing interval, read-out: Oral AUCss): 146000 ng·h/mL
- AUC ([3]; po, Maximum, observed, ER products, 12 hour dosing interval, read-out: Oral AUCss): 168000 ng·h/mL
- AUC ([3]; po, Mean ± SD, observed, ER products, 12 hour dosing interval, read-out: Oral AUCss): 96800 ± 28100 ng·h/mL
- AUC ([3]; po, Median, observed, ER products, 12 hour dosing interval, read-out: Oral AUCss): 96000 ng·h/mL
- AUC ([3]; po, Minimum, observed, ER products, 12 hour dosing interval, read-out: Oral AUCss): 28500 ng·h/mL

From patent publication US9770407B2 (Lundbeck Pharmaceuticals LLC, priority 2005, dated 2017)
